Legend:
Assay type in all cases: in vivo
[1] = test system: Amaranthus palmeri having an Arg128Gly, Arg128Met, Gly210 deletion or Gly399Ala mutation in PPO2, waterhemp having a Gly210 deletion mutation in PPO2, ragweeds …; assay: Herbicidal effect, soil application with drift-reducing nozzle 7 days before sowing soybean (Example 1); details: soil surface, TTI11004 nozzle, 10, 20, 40, 80, or 160 g/ha, 200 L/ha, greenhouse, soybean sown after 7 days, examined after 14 days
Source text: Amaranthus palmeri having an Arg128Gly mutation in PPO2, Amaranthus palmeri having an Arg128Met mutation in PPO2, Amaranthus palmeri having a Gly210 deletion mutation in PPO2, Amaranthus palmeri having a Gly399Ala mutation in PPO2, waterhemp having a Gly210 deletion mutation in PPO2, and ragweeds having Arg128Leu in PPO2 are sown in a plastic pot. On the same day, a compound X is applied to the surface of soil by using a drift-reducing nozzle (TTI11004 manufactured by Teejet Company). The amount of the compound X to be applied is 10, 20, 40, 80, or 160 g/ha and the amount of spray dilution is 200 L/ha. Then, these weeds are cultivated in a greenhouse and Roundup Ready 2 Xtend soybean seeds are sown after 7 days, to examine the effects on the weeds and phytotoxic effects on the soybean after 14 days.

[2] = test system: Amaranthus palmeri having an Arg128Gly, Arg128Met, Gly210 deletion or Gly399Ala mutation in PPO2, waterhemp having a Gly210 deletion mutation in PPO2, ragweeds …; assay: Herbicidal effect, soil application with drift-reducing nozzle on the day of sowing weeds and soybean (Example 2); details: soil surface on day of sowing, TTI11004 nozzle, 10, 20, 40, 80, or 160 g/ha, 200 L/ha, greenhouse, examined after 21 days
Source text: Amaranthus palmeri having an Arg128Gly mutation in PPO2, Amaranthus palmeri having an Arg128Met mutation in PPO2, Amaranthus palmeri having a Gly210 deletion mutation in PPO2, Amaranthus palmeri having a Gly399Ala mutation in PPO2, waterhemp having a Gly210 deletion mutation in PPO2, ragweeds having Arg128Leu in PPO02, and a Roundup Ready 2 Xtend soybean are sown in a plastic pot. On the same day, a compound X is applied to the surface of soil by using a drift-reducing nozzle (TTI11004 manufactured by Teejet Company). The amount of the compound X to be applied is 10, 20, 40, 80, or 160 g/ha and the amount of spray dilution is 200 L/ha. Then, the weeds and soybean are cultivated in a greenhouse to examine the effects on the weeds and phytotoxic effects on the soybean after 21 days.

[3] = test system: Amaranthus palmeri having an Arg128Gly, Arg128Met, Gly210 deletion or Gly399Ala mutation in PPO2, waterhemp having a Gly210 deletion mutation in PPO2, ragweeds …; assay: Herbicidal effect, foliar treatment with drift-reducing nozzle 21 days after sowing (Example 3); details: foliar treatment 21 days after sowing, TTI11004 nozzle, 10, 20, 40, 80, or 160 g/ha, 200 L/ha, greenhouse, examined 14 days after treatment
Source text: Amaranthus palmeri having an Arg128Gly mutation in PPO2, Amaranthus palmeri having an Arg128Met mutation in PPO2, Amaranthus palmeri having a Gly210 deletion mutation in PPO2, Amaranthus palmeri having a Gly399Ala mutation in PPO2, waterhemp having a Gly210 deletion mutation in PPO2, ragweeds having Arg128Leu in PPO02, and a Roundup Ready 2 Xtend soybean are sown in a plastic pot. Then, the weeds and soybean are cultivated in a greenhouse and a compound X is applied to perform foliar treatment by using a drift-reducing nozzle (TTI11004 manufactured by Teejet Company) 21 days after sowing. The amount of the compound X to be applied is 10, 20, 40, 80, or 160 g/ha and the amount of spray dilution is 200 L/ha. Then, the weeds and soybean are further cultivated in a greenhouse to examine the effects on the weeds and phytotoxic effects on the soybean 14 days after treatment.

Measured: effects on the weeds

CCOC(=O)COc1ncccc1Oc1cc(-n2c(=O)cc(C(F)(F)F)n(C)c2=O)c(F)cc1Cl [compound X, Ethyl [3-[2-chloro-4-fluoro-5-(l-methyl-6-trifluoromethyl-2,4-dioxo-1,2,3,4-tetrahydropyrimidine-3-yl)phenoxy]-2-pyridyloxy]acetate]
valuable effect: all assays above
